Data from paper PMC9668280, “3H-1,2-Benzoxaphosphepine 2-oxides as selective inhibitors of carbonic anhydrase IX and XII” (Journal of Enzyme Inhibition and Medicinal Chemistry, 2022).
Like-named read-outs stand apart in the source and are kept apart here.

Columns and labels:
Assay in all cases: stopped-flow CO2 hydration assay
Assay type in all cases: biochemical
hCA IX = target: T1, hCA IX (Homo sapiens, UniProt Q16790); conditions: read-out: KI (μM)^a,b / hCA IX
T1 construct: gene CA9; recombinant, obtained in-house
Source text: stopped-flow CO2 hydration assay on hCA IX

hCA XII = target: T2, hCA XII (Homo sapiens, UniProt O43570); conditions: read-out: KI (μM)^a,b / hCA XII
T2 construct: gene CA12; recombinant, obtained in-house
Source text: stopped-flow CO2 hydration assay on hCA XII

hCA II [1] = target: T3, hCA II (Homo sapiens, UniProt P00918); conditions: CO2 […], […] HEPES pH […] NaClO4, […] h preincubation at room temperature; read-out: KI (μM)^a,b / hCA I
T3 construct: gene CA2; recombinant, obtained in-house

hCA I = target: T4, hCA I (Homo sapiens, UniProt P00915); conditions: read-out: KI (μM)^a,b / hCA I
T4 construct: gene CA1; recombinant, obtained in-house
Source text: stopped-flow CO2 hydration assay on hCA I

hCA II [2] = target: T3, hCA II; conditions: CO2 1.7-17 mM, 20 mM HEPES pH 7.4, 20 mM NaClO4, 6 h preincubation at room temperature; read-out: KI (μM)^a,b / hCA I
Source text: stopped-flow CO2 hydration assay on hCA II

[3] = CO2 […], […] HEPES pH […] NaClO4, […] h preincubation at room temperature
[4] = CO2 1.7-17 mM, 20 mM HEPES pH 7.4, 20 mM NaClO4, 6 h preincubation at room temperature

T2 sequence (O43570 25-354 limits assumed): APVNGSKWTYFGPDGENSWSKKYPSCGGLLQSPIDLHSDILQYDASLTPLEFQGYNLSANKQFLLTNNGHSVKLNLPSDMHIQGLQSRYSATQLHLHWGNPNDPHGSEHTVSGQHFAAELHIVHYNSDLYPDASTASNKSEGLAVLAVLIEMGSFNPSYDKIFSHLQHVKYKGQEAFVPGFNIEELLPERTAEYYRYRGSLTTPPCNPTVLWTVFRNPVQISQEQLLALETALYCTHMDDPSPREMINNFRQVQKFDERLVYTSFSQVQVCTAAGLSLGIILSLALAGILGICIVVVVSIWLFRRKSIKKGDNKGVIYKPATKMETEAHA
T4 sequence (P00915 2-261): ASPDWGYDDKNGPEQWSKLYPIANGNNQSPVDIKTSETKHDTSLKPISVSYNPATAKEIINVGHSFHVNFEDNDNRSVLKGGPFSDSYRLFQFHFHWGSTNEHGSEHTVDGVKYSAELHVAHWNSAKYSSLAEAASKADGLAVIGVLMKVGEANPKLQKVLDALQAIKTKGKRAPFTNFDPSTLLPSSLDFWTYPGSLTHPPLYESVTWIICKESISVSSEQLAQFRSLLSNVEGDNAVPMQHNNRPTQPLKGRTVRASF

Molecule	Ki (hCA IX; [3]) [µM]	Ki (hCA XII; [3]) [µM]	Ki (hCA II [1]) [µM]	Ki (hCA I; [3]) [µM]	Ki (hCA IX; [4]) [µM]	Ki (hCA II [2]) [µM]	Ki (hCA XII; [4]) [µM]	Ki (hCA I; [4]) [µM]
CCOP1(=O)CC=Cc2cc(Br)ccc2O1 (stereo not shown) [6c, 7-Bromo-2-ethoxy-3H-benzo[f][1,2]oxaphosphepine 2-oxide]	0.76	1.6	> 100	> 100				
COc1cccc2c1OP(=O)(O)CC=C2 [7e, 2-Hydroxy-9-methoxy-3H-benzo[f][1,2]oxaphosphepine 2-oxide]	1.8	1.2	> 100	> 100				
CCOP1(=O)CC=Cc2cc(Cl)cc(Cl)c2O1 (stereo not shown) [6f, 7,9-Dichloro-2-ethoxy-3H-benzo[f][1,2]oxaphosphepine 2-oxide]	6.1	3.4	> 100	> 100				
2-Hydroxy-3H-benzo[f][1,2]oxaphosphepine 2-oxide [7a]					1.3	> 100	0.51	> 100
O=P1(O)CC=Cc2cccc(Br)c2O1 [7d, 9-Bromo-2-hydroxy-3H-benzo[f][1,2]oxaphosphepine 2-oxide]	2.5	1.8	> 100	> 100				
O=P1(O)CC=Cc2cc(Cl)cc(Cl)c2O1 [7f, 7,9-Dichloro-2-hydroxy-3H-benzo[f][1,2]oxaphosphepine 2-oxide]	0.8	1.7	> 100	> 100				
CCOP1(=O)CC=Cc2cc(I)ccc2O1 (stereo not shown) [6b, 2-Ethoxy-7-iodo-3H-benzo[f][1,2]oxaphosphepine 2-oxide]	4.7	2.4	> 100	> 100				
O=P1(O)CC=Cc2cc(Br)ccc2O1 [7c, 7-Bromo-2-hydroxy-3H-benzo[f][1,2]oxaphosphepine 2-oxide]	1	0.96	> 100	> 100				
O=[N+]([O-])c1ccc2c(c1)C=CCP(=O)(O)O2 [7g, 2-Hydroxy-7-nitro-3H-benzo[f][1,2]oxaphosphepine 2-oxide]	0.67	1	> 100	> 100				
CCOP1(=O)CC=Cc2cc([N+](=O)[O-])ccc2O1 (stereo not shown) [6g, 2-Ethoxy-7-nitro-3H-benzo[f][1,2]oxaphosphepine 2-oxide]	3.9	0.95	> 100	> 100				
CCOP1(=O)CC=Cc2ccccc2O1 (stereo not shown) [6a, 2-Ethoxy-3H-benzo[f][1,2]oxaphosphepine 2-oxide]	0.82		> 100	> 100				
CCOP1(=O)CC=Cc2cccc(Br)c2O1 (stereo not shown) [6d, 9-Bromo-2-ethoxy-3H-benzo[f][1,2]oxaphosphepine 2-oxide]	11.3	3.3	> 100	> 100				
CCOP1(=O)CC=Cc2cccc(OC)c2O1 (stereo not shown) [6e, 2-Ethoxy-9-methoxy-3H-benzo[f][1,2]oxaphosphepine 2-oxide]	9	7.4	> 100	> 100				
O=P1(O)CC=Cc2cc(I)ccc2O1 [7b, 2-Hydroxy-7-iodo-3H-benzo[f][1,2]oxaphosphepine 2-oxide]	0.88	0.68	> 100	> 100				
